Experimental data as given in ChEMBL document CHEMBL1201862, “PubChem BioAssay data set” (2004).
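Each compound was tested at five concentrations against cells in 96-well plates for 48 hours. GI50 marks 50% less growth.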 Activity calls are given as the source filed them. Rule as the data show it: active = GI50 up to about 1.1 µM and inactive = higher.

Columns and labels:
Test in all cases: NCI-60 cell line screen, 48 h
786-0 = test system: 786-0
CAKI-1 = test system: CAKI-1
M14 = test system: M14
NCI-H522 = test system: NCI-H522
OVCAR-3 = test system: OVCAR-3
RXF 393 = test system: RXF 393
LOX IMVI = test system: LOX IMVI
MDA-MB-435 = test system: MDA-MB-435
RPMI-8226 = test system: RPMI-8226
T47D = test system: T47D
NCI-H460 = test system: NCI-H460
SK-MEL-28 = test system: SK-MEL-28
SNB-19 = test system: SNB-19
SF-295 = test system: SF-295
SK-MEL-2 = test system: SK-MEL-2
UACC-62 = test system: UACC-62
SK-OV-3 = test system: SK-OV-3
MDA-MB-231 = test system: MDA-MB-231
SF-268 = test system: SF-268
ACHN = test system: ACHN

Measured: GI50

CCN(CC)CCN(/C(=N/c1ccccc1)N1CCOCC1)c1ccccc1
inactive: 786-0 > 100 µM | CAKI-1 > 100 µM | M14 > 100 µM | NCI-H522 > 100 µM | OVCAR-3 > 100 µM | RXF 393 > 100 µM | LOX IMVI 44.6 µM | MDA-MB-435 28.8 µM | RPMI-8226 > 100 µM | T47D > 100 µM | NCI-H460 > 100 µM | SK-MEL-28 > 100 µM | SNB-19 > 100 µM | SF-295 > 100 µM | SK-MEL-2 > 100 µM | UACC-62 > 100 µM | SK-OV-3 > 100 µM | MDA-MB-231 > 100 µM | SF-268 > 100 µM

CCOC(=O)[C@H](CO)NC1=C(Cl)C(=O)c2c(O)ccc(O)c2C1=O
inactive: 786-0 > 10 µM | CAKI-1 > 10 µM | M14 > 10 µM | NCI-H522 > 10 µM | OVCAR-3 > 10 µM | RXF 393 > 10 µM | LOX IMVI > 10 µM | MDA-MB-435 > 10 µM | RPMI-8226 > 10 µM | T47D > 10 µM | NCI-H460 > 10 µM | SK-MEL-28 > 10 µM | SNB-19 > 10 µM | SF-295 > 10 µM | SK-MEL-2 > 10 µM | ACHN > 10 µM | UACC-62 > 10 µM | SK-OV-3 > 10 µM | MDA-MB-231 > 10 µM | SF-268 > 10 µM

O=[N+]([O-])c1cccc(-c2csc(N/N=C3\NC/C(=C/c4ccc5c(c4)OCO5)S3)n2)c1
inactive: 786-0 38.4 µM | CAKI-1 38.4 µM | M14 23.3 µM | NCI-H522 18.2 µM | OVCAR-3 30.3 µM | RXF 393 22.6 µM | LOX IMVI 50.7 µM | MDA-MB-435 40.2 µM | RPMI-8226 37.7 µM | T47D 29.9 µM | NCI-H460 33.5 µM | SNB-19 20.5 µM | SF-295 35 µM | SK-MEL-2 22.1 µM | ACHN 28.9 µM | UACC-62 18.8 µM | SK-OV-3 26.8 µM | MDA-MB-231 35.1 µM | SF-268 23.3 µM

CC(=O)Nc1cc([As](=O)(O)O)ccc1O [ACETARSONE]
inactive: 786-0 > 100 µM | CAKI-1 > 100 µM | M14 > 100 µM | NCI-H522 > 100 µM | OVCAR-3 > 100 µM | RXF 393 > 100 µM | LOX IMVI > 100 µM | MDA-MB-435 > 100 µM | RPMI-8226 > 100 µM | T47D > 100 µM | NCI-H460 > 100 µM | SK-MEL-28 > 100 µM | SNB-19 > 100 µM | SF-295 > 100 µM | SK-MEL-2 > 100 µM | ACHN > 100 µM | UACC-62 > 100 µM | SK-OV-3 > 100 µM | MDA-MB-231 > 100 µM | SF-268 > 100 µM

CC(=O)OCC1OC(n2c(-c3cccs3)c3c(c(C#N)c2=S)-c2ccccc2CC3)C(OC(C)=O)C(OC(C)=O)C1OC(C)=O (stereo not given)
inactive: 786-0 9.27 µM | CAKI-1 9.59 µM | M14 7.67 µM | NCI-H522 10.7 µM | OVCAR-3 10.4 µM | RXF 393 8.28 µM | LOX IMVI 6.82 µM | MDA-MB-435 2.77 µM | RPMI-8226 3.28 µM | T47D 5.07 µM | NCI-H460 11.5 µM | SK-MEL-28 13.7 µM | SNB-19 13 µM | SF-295 13.7 µM | SK-MEL-2 5.48 µM | ACHN 9.64 µM | UACC-62 4.17 µM | SK-OV-3 20.2 µM | MDA-MB-231 16.6 µM | SF-268 14.9 µM

CCc1cccc(C(C)(C)C)c1NC(=S)N/C=C(/C#N)C(N)=O
inactive: 786-0 > 100 µM | CAKI-1 > 100 µM | M14 > 100 µM | NCI-H522 > 100 µM | OVCAR-3 92.7 µM | RXF 393 > 100 µM | LOX IMVI > 100 µM | MDA-MB-435 > 100 µM | RPMI-8226 > 100 µM | T47D 95.5 µM | NCI-H460 > 100 µM | SK-MEL-28 > 100 µM | SNB-19 > 100 µM | SF-295 > 100 µM | SK-MEL-2 > 100 µM | ACHN > 100 µM | UACC-62 > 100 µM | SK-OV-3 > 100 µM | MDA-MB-231 > 100 µM | SF-268 > 100 µM

CCCCc1ccc(Nc2nc(Cl)c3c(ncn3C3CC(Oc4ccc(C)cc4)C(COc4ccc(C)cc4)O3)n2)cc1 (stereo not given)
inactive: 786-0 > 100 µM | CAKI-1 > 100 µM | M14 > 100 µM | NCI-H522 > 100 µM | OVCAR-3 > 100 µM | RXF 393 > 100 µM | LOX IMVI > 100 µM | MDA-MB-435 > 100 µM | RPMI-8226 > 100 µM | T47D > 100 µM | NCI-H460 > 100 µM | SNB-19 > 100 µM | SF-295 > 100 µM | SK-MEL-2 > 100 µM | ACHN > 100 µM | UACC-62 > 100 µM | SK-OV-3 > 100 µM | MDA-MB-231 > 100 µM | SF-268 > 100 µM

CCCCCC(C/C=N/N(C)C)C(O)(C(F)(F)F)C(F)(F)F (stereo not given)
inactive: 786-0 35.9 µM | CAKI-1 43.6 µM | M14 38.7 µM | NCI-H522 19.7 µM | OVCAR-3 9.31 µM | RXF 393 32 µM | LOX IMVI 43.2 µM | MDA-MB-435 31 µM | RPMI-8226 11.3 µM | T47D 25.9 µM | NCI-H460 36.4 µM | SK-MEL-28 45.8 µM | SNB-19 37 µM | SF-295 42.5 µM | SK-MEL-2 25.9 µM | ACHN 24.4 µM | UACC-62 59.8 µM | SK-OV-3 33.9 µM | MDA-MB-231 27.5 µM | SF-268 36.7 µM

O=C(Nc1cnc(O)nc1O)Oc1ccccc1
inactive: 786-0 > 100 µM | CAKI-1 > 100 µM | M14 > 100 µM | NCI-H522 > 100 µM | OVCAR-3 > 100 µM | RXF 393 > 100 µM | LOX IMVI > 100 µM | MDA-MB-435 > 100 µM | RPMI-8226 > 100 µM | T47D > 100 µM | NCI-H460 > 100 µM | SK-MEL-28 > 100 µM | SNB-19 > 100 µM | SF-295 > 100 µM | SK-MEL-2 > 100 µM | ACHN > 100 µM | UACC-62 > 100 µM | SK-OV-3 > 100 µM | MDA-MB-231 > 100 µM | SF-268 > 100 µM

CC[N+](C)(CC)Cc1ccccc1[N+](=O)[O-]
inactive: 786-0 > 100 µM | CAKI-1 > 100 µM | M14 > 100 µM | NCI-H522 > 100 µM | OVCAR-3 26.9 µM | RXF 393 > 100 µM | LOX IMVI > 100 µM | MDA-MB-435 > 100 µM | RPMI-8226 > 100 µM | T47D > 100 µM | NCI-H460 > 100 µM | SK-MEL-28 > 100 µM | SF-295 > 100 µM | SK-MEL-2 > 100 µM | ACHN > 100 µM | UACC-62 > 100 µM | SK-OV-3 > 100 µM | MDA-MB-231 72.8 µM | SF-268 59.4 µM

Cc1ccc(/N=N/NCCCCN)cc1
inactive: 786-0 > 100 µM | CAKI-1 > 100 µM | M14 > 100 µM | NCI-H522 > 100 µM | RXF 393 > 100 µM | LOX IMVI 10.1 µM | MDA-MB-435 > 100 µM | RPMI-8226 5.86 µM | T47D > 100 µM | SNB-19 49.2 µM | SF-295 19.3 µM | SK-MEL-2 > 100 µM | ACHN 12.6 µM | UACC-62 > 100 µM | SK-OV-3 > 100 µM | MDA-MB-231 > 100 µM | SF-268 > 100 µM

CCOC(=O)CCc1c(C(=O)OCC)[nH]c(/C=C2\NC(=O)C(C)=C2CC)c1C
inactive: 786-0 14.5 µM | CAKI-1 24.3 µM | M14 24.8 µM | NCI-H522 14.5 µM | OVCAR-3 18.5 µM | RXF 393 23.2 µM | LOX IMVI 22.5 µM | MDA-MB-435 > 100 µM | RPMI-8226 > 100 µM | T47D 10.1 µM | NCI-H460 44.3 µM | SK-MEL-28 51.8 µM | SF-295 17.8 µM | SK-MEL-2 18.1 µM | ACHN 15.5 µM | UACC-62 19.2 µM | SK-OV-3 22 µM | MDA-MB-231 19.8 µM | SF-268 26.9 µM

Nc1nc(O)c2nc3c(nc2n1)C(=O)N(c1ccc(C(=O)O)cc1)C3
inactive: 786-0 > 100 µM | CAKI-1 > 100 µM | M14 > 100 µM | NCI-H522 > 100 µM | RXF 393 > 100 µM | LOX IMVI > 100 µM | MDA-MB-435 > 100 µM | RPMI-8226 > 100 µM | T47D > 100 µM | NCI-H460 > 100 µM | SK-MEL-28 > 100 µM | SNB-19 > 100 µM | SF-295 > 100 µM | SK-MEL-2 > 100 µM | ACHN > 100 µM | UACC-62 > 100 µM | SK-OV-3 > 100 µM | MDA-MB-231 > 100 µM | SF-268 > 100 µM

COc1cc2ccc1OCc1cccc(n1)COc1ccc(cc1OC)/C=N\CCNCC/N=C\2
inactive: 786-0 > 100 µM | CAKI-1 > 100 µM | M14 > 100 µM | NCI-H522 34.4 µM | OVCAR-3 > 100 µM | RXF 393 > 100 µM | LOX IMVI > 100 µM | MDA-MB-435 > 100 µM | RPMI-8226 > 100 µM | T47D 65.8 µM | NCI-H460 > 100 µM | SK-MEL-28 > 100 µM | SNB-19 > 100 µM | SF-295 41.7 µM | SK-MEL-2 > 100 µM | ACHN > 100 µM | SK-OV-3 63.4 µM | MDA-MB-231 35.2 µM | SF-268 80.9 µM
